Experimental data: patent publication US20030139391A1 (priority 2000, published 2003)

Tested on: Patients diagnosed with Alzheimer's Disease
Assay: CIBIC-plus in 5-month slow-titration trial
Assay type: in vivo, human
Description: Subjects in the Placebo group received 21 weeks (5 months) of placebo medication.
The CIBIC-plus score was a second primary variable. An independent, experienced and properly trained clinician provided a global impression of the subject's deterioration or improvement over the course of the trial, based on separate interviews with the subject and caregivers. If helpful, the CIBIC rater audiotaped or videotaped the baseline interview for future reference.
The CIBIC-plus was performed at visit 2, 3, 4, and 5 (baseline, week 4, week 13, and month 5 or upon early discontinuation of trial medication intake). Only a trained CIBIC rater performed the test.
For ordinal categorical variables such as the CIBIC-plus score, the Van Elteren test controlling for investigator was used for the between group comparison. For the nominal data (e.g., events rates), the Cochran-Mantel-Haenszel test for general association controlling for investigator was used. A linear contrast on the proportion of patients that stay the same or improve was used to test for increasing response with increasing dose.

COc1ccc2c3c1O[C@H]1C[C@@H](O)C=C[C@@]31CCN(C)C2 [GAL, galantamine]
CIBIC-plus at Month 5, Improved/no change: % (LOCF, 8 mg/day): 53%
CIBIC-plus at Month 5, Improved/no change: n (LOCF, 8 mg/day): 68
CIBIC-plus at Month 5, Improved/no change: % (LOCF, 16 mg/day): 66%
CIBIC-plus at Month 5, Improved/no change: n (LOCF, 16 mg/day): 169
CIBIC-plus at Month 5, Improved/no change: % (LOCF, 24 mg/day): 64%
CIBIC-plus at Month 5, Improved/no change: n (LOCF, 24 mg/day): 162
CIBIC-plus at Month 5, Improved/no change: % (observed case, 8 mg/day): 51%
CIBIC-plus at Month 5, Improved/no change: n (observed case, 8 mg/day): 54
CIBIC-plus at Month 5, Improved/no change: % (observed case, 16 mg/day): 68%
CIBIC-plus at Month 5, Improved/no change: n (observed case, 16 mg/day): 143
CIBIC-plus at Month 5, Improved/no change: % (observed case, 24 mg/day): 64%
CIBIC-plus at Month 5, Improved/no change: n (observed case, 24 mg/day): 136
